In PubChem BioAssay AID464 (The Scripps Research Institute Molecular Screening Center, 2006):
The source made the active and inactive calls.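 How the source made its calls: active means Compounds that kill half the cells at a concentration of 5 micromolar or below, from the fitted or estimated CC50; inactive means CC50 above 5 micromolar.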

Tested on: Jurkat E6.1 viability, ATP luminescence, 48 h
Assay: viability loss in Jurkat T cells – cell-based, ATP luminescence, 48 h, 60K MLSMR, cytotoxicity control, dose response (AID 464)

Row | SMILES | CC50
1 | COc1cccc(C(=O)Nc2ncc3c(n2)CC(c2ccc(OC)cc2OC)CC3=O)c1 (centres undefined) | 8.19 µM (inactive)
2 | Cn1nc(-c2ccc(OCC(=O)N3CCN(Cc4ccccc4)CC3)cc2)c2ccccc2c1=O | 9.14 µM (inactive)
3 | CCOC(=O)N1CCN(S(=O)(=O)c2ccc(C(=O)Nc3ccc(F)cc3F)cc2)CC1 | 1.09 µM
4 | N=c1c2c(n(Cc3ccc(Cl)cc3Cl)c3c1CCC3)CCCC2 | 2.26 µM
5 | COc1ccc(C(=O)n2c(-c3ccco3)nc3ccccc32)cc1 | 1.79 µM
6 | COc1ccc(-c2nnc(NC(=O)c3ccccc3C)o2)cc1 | > 40 µM (inactive)
7 | COc1ccc(Cl)cc1S(=O)(=O)n1cnc2ccccc21 | > 40 µM (inactive)
8 | c1ccc(OCCCCn2cnc3ccccc32)cc1 | 20.3 µM (inactive)
9 | COc1ccc2c(c1)sc1nc(-c3ccccc3)cn12 | 0.75 µM
10 | COc1cccc(C(=O)/C=C/Nc2cc(C)ccc2O)c1 | 2.95 µM
11 | CC1CN(S(=O)(=O)c2ccc(NC(=O)c3cc(-c4ccccc4O)n[nH]3)cc2)CC(C)O1 (centres undefined) | > 13 µM (inactive)
12 | Cc1nnc(NC(=O)CSc2nccn2-c2cccc(C)c2C)s1 | 2.04 µM
13 | Cc1nc2ccccn2c1-c1csc(NCc2ccco2)n1 | > 40 µM (inactive)
14 | O=c1c2cc3ccccc3n2cnn1Cc1ccccc1F | 16.4 µM (inactive)
15 | O=c1c2[nH]c3ccc(F)cc3c2ncn1CCCn1ccnc1 | 17.1 µM (inactive)
16 | CCCCOc1ccccc1NC(=O)Cn1c(-c2nonc2N)nc2ccccc21 | 0.733 µM
17 | Cc1ccc(S(=O)(=O)NCc2ccncc2)cc1 | 2.87 µM
18 | COc1ccc(-c2nc3cc(NC(=O)Cc4ccc(OC)c(OC)c4)ccc3o2)cc1 | > 40 µM (inactive)
19 | COc1cccc(OC)c1-c1nn2c(-c3cc(-c4ccccc4)n[nH]3)nnc2s1 | 8.6 µM (inactive)
20 | CC(C)Cc1cc(C(=O)Nc2cc(Br)ccc2O)no1 | > 40 µM (inactive)
21 | CCn1c(C)nc2cc(-c3nc4n(n3)Cc3ccccc3-4)ccc21 | 2.57 µM
22 | Cc1cccc(-n2c(O)c(C=Nc3ccccc3N)c(=O)[nH]c2=O)c1 | > 13 µM (inactive)

Row | SMILES | CC50
23 | CC(O)CNc1nc2c(c(=O)n(C)c(=O)n2C)n1Cc1cccc(Br)c1 (centres undefined) | 22.5 µM (inactive)
24 | CC(C)Oc1cc(O)c2c(=O)c(-c3ccc(O)cc3)coc2c1 | 11 µM (inactive)
25 | Cc1cccc(Cn2c(NCCO)nc3c2c(=O)n(C)c(=O)n3C)c1 | 2.32 µM
26 | CSCCOC(=O)c1[nH]c2c(c1C)C(=O)CC(c1ccco1)C2 (centres undefined) | 1.67 µM
27 | CCOC(=O)c1c(C)c(C(=O)Nc2cc(F)ccc2F)c(C)n1C | 6.52 µM (inactive)
28 | CCN(CC)c1ccc(NC(=O)c2ccccc2F)cc1 | > 4.4 µM (inactive)
29 | O=C(NCCSc1c[nH]c2ccccc12)c1ccc(Br)o1 | > 40 µM (inactive)
30 | c1ccc(CNc2ncnc3ccccc23)cc1 | 4.68 µM
31 | O=C(CCCCn1c(=O)c2ccccc2n(Cc2ccc(F)cc2)c1=O)NCc1ccco1 | 9.14 µM (inactive)
32 | COc1ccc(C(=O)c2ccc(N(C)C)cc2)c(OC)c1 | 1.5 µM
33 | Cn1c(C(=O)NCCc2c[nH]c3ccccc23)cc2sccc21 | > 40 µM (inactive)
34 | CCOC(=O)N1CCC(NC(=O)c2ccc3c(c2)sc2nc(-c4cccc(OC)c4)cn23)CC1 | 35.1 µM (inactive)
35 | Cn1c(=O)c2c(nc(NCc3ccco3)n2C/C=C/c2ccccc2)n(C)c1=O | 9.36 µM (inactive)
36 | COc1ccc(N(CC(=O)Nc2cc(Cl)ccc2OC)S(=O)(=O)c2c(C)noc2C)cc1 | 2.97 µM
37 | Clc1ccc(C2=Nn3c(nnc3-c3n[nH]c4c3CCC4)SC2)cc1 | 1.64 µM
38 | CN(C)S(=O)(=O)c1ccc(C(=O)Nc2nc(-c3cccs3)cs2)cc1 | 21.1 µM (inactive)
39 | CCOC(=O)c1c(-c2ccc(C)cc2C)csc1NC(=O)CSc1nnnn1C | 35 µM (inactive)
40 | O=C(NCc1cccnc1)c1c[nH]c2cc3c(cc2c1=O)OCCO3 | 1.09 µM
41 | CCOC(=O)c1[nH]c(C)c(C(=O)c2cc(F)ccc2F)c1C | 0.204 µM
42 | COc1cccc2sc(Nc3nc(-c4ccccn4)cs3)nc12 | 2.81 µM
43 | COc1cc(C)c(C(C)C)cc1S(=O)(=O)n1cnc(C)c1 | 7.61 µM (inactive)
44 | O=C(CCNc1ccc(F)c(Cl)c1)c1ccco1 | > 13 µM (inactive)

Row | SMILES | CC50
45 | CCC1CCCCN1S(=O)(=O)c1ccc(C(=O)Nc2nnc(-c3cccs3)o2)cc1 (centres undefined) | 11.6 µM (inactive)
46 | CCOC(=O)CSC1=C(C#N)C(c2ccc(C)o2)CC(=O)N1 (centres undefined) | 0.535 µM
47 | CCOC(=O)N1CCN(c2c(F)cc3[nH]c(=S)[nH]c3c2Br)CC1 | > 4.4 µM (inactive)
48 | C=CCN1C(=Nc2cccnc2)SCC1(O)c1ccc(C)cc1 (centres undefined) | 17.9 µM (inactive)
49 | CCCCCCn1c2c(c(=N)c3c1CCC3)CCC2 | 0.482 µM
50 | CCOC(=O)CS(=O)(=O)c1nc(-c2ccccc2)cc(C(F)(F)F)n1 | 3.42 µM
51 | CCC(C)Oc1ccccc1C1CC(=O)NC2=C1C(=O)CCC2 (centres undefined) | 4.73 µM
52 | Cc1ccsc1C=Nc1ccc(O)cc1 | 39.3 µM (inactive)
53 | Cn1ncc2c(Nc3ccc(-c4ccccc4)cc3)ncnc21 | > 40 µM (inactive)
54 | COc1ccc(-c2cn3c(C)c(C(=O)Nc4cc(NC(C)=O)ccc4OC)sc3n2)cc1 | 2.23 µM
55 | COc1ccc(C(=O)CSc2nnc(Cn3cnc4ccccc43)o2)cc1 | 2.6 µM
56 | CCOc1ccc(Nc2cc(C)nc(-n3nc(C)cc3C)n2)cc1 | 0.191 µM
57 | CCOC(=O)c1[nH]c(C)c(C(=O)N2CCc3ccccc32)c1C | 0.284 µM
58 | COc1ccccc1C(=O)N1CCN(c2cccc(C(F)(F)F)c2)CC1 | 2.09 µM
59 | COc1cc(NC(=O)c2cc(-c3cccs3)on2)cc(OC)c1OC | 12.8 µM (inactive)
60 | c1ccc(/N=C2\N=C(Nc3ccccn3)c3ccccc32)nc1 | 1.12 µM
61 | COc1cc(C)c(Cl)cc1S(=O)(=O)NCc1ccncc1 | 3.1 µM
62 | O=C(Nc1nc(-c2ccc3c(c2)OCCO3)cs1)c1ccc(S(=O)(=O)N2CCCCC2)cc1 | 8.3 µM (inactive)
63 | COc1cccc(-c2cc(C(=O)Nc3cccc(O)c3)no2)c1 | > 40 µM (inactive)
64 | CCN1CCN(S(=O)(=O)c2cc(OCC(=O)NC3CCCCC3)c(C)cc2Cl)CC1 | 3.3 µM
65 | COc1cc(C(=O)OCC(=O)c2cc(C)n(C)c2C)cc(OC)c1OC | > 4.4 µM (inactive)
66 | CC(C)OCCCNc1ncnc2c1[nH]c1ccc(F)cc12 | 2.02 µM

Row | SMILES | CC50
67 | CS(=O)c1nc(-c2ccc(Br)cc2)cc(-c2ccccc2)c1C#N (centres undefined) | 0.631 µM
68 | COc1cc(N=Cc2c(O)[nH]c3ccccc23)cc(OC)c1OC | 1.58 µM
69 | CN(C)c1ccc(C2C=C(c3ccc(Cl)cc3OC(F)F)Nc3ncnn32)cc1 (centres undefined) | 3.56 µM
70 | CCOC(=O)C(C)Oc1cccc2c(=O)n(CC(=O)NCc3ccco3)ccc12 (centres undefined) | 1.1 µM
71 | Nc1nc(-c2ccccc2)cc(N2CCCCC2)n1 | 0.877 µM
72 | COCCCN(C(C)=O)c1nc(-c2ccc(OC)cc2)cs1 | > 4.4 µM (inactive)
73 | COc1ccc(C2=NOC(C(=O)NCc3ccccc3)C2)cc1 (centres undefined) | 3.26 µM
74 | CCc1nnc(NC(=O)CSc2nc3cccnc3n2C2CCCCC2)s1 | > 40 µM (inactive)
75 | Cc1ccc(Oc2ccc(S(=O)(=O)N3CCOCC3)cc2C(N)=O)c(-n2nc3ccccc3n2)c1 | 2.31 µM
76 | COc1ccc(-c2nnc(SCC(=O)Nc3ncc(C)s3)n2-c2ccccc2)cc1OC | 9.26 µM (inactive)
77 | CCOC(=O)CSC1=C(C#N)C(c2sccc2C)CC(=O)N1 (centres undefined) | 1.91 µM
78 | Cc1cc(C)n(-c2nnc3n2N=C(c2c[nH]c4ccccc24)CS3)n1 | > 4.4 µM (inactive)
79 | O=C(CSc1nnnn1C1CC2CCC1C2)Nc1ccnc2ccccc12 (centres undefined) | 0.092 µM
80 | COc1cccc(OC)c1C1=NCC(=O)Nc2c1oc1ccc(Br)cc21 | 0.693 µM
81 | CCn1c(SCC(=O)c2c[nH]c3ccccc23)nnc1-c1cccs1 | 8.26 µM (inactive)
82 | Cc1nc2sccn2c1-c1csc(NCc2ccccc2)n1 | 4.81 µM
83 | CCn1c2ccccc2c2cc(Nc3cc(C)nc4ncnn34)ccc21 | 0.109 µM
84 | O=C(Nc1nc(-c2ccc(S(=O)(=O)N3CCCCCC3)cc2)cs1)c1cccs1 | > 40 µM (inactive)
85 | Brc1ccc(C2=Nn3c(nnc3-c3n[nH]c4c3CCC4)SC2)cc1 | 0.313 µM
86 | CCOC(=O)c1[nH]c(C)c(C(=O)Nc2cc(OC)ccc2OC)c1C | 0.458 µM
87 | COc1cc(CN2CCN(c3cccc(Cl)c3)CC2)cc(OC)c1OC | 4.36 µM
88 | N=c1c2c(n(Cc3ccccc3)c3c1CCC3)CCC2 | 3.66 µM

Row | SMILES | CC50
89 | CCNc1nc2c(c(=O)n(C)c(=O)n2C)n1Cc1ccc(Cl)cc1 | 4.09 µM
90 | CCOC(=O)c1[nH]c(C)c(C(=O)Nc2ccc(C)c(F)c2)c1C | 7.19 µM (inactive)
91 | CCOC(=O)CS(=O)(=O)c1nc(-c2ccc(F)cc2)cc(C(F)(F)F)n1 | 3.81 µM
92 | CC(=O)c1ccc(Oc2cc(C)nc(-n3nc(C)cc3C)n2)cc1 | 0.293 µM
93 | CCCCn1c(CN2CCN(c3cccc(Cl)c3)CC2)nc2c1c(=O)[nH]c(=O)n2C | 2.84 µM
94 | O=c1cc(CSc2nnc(-c3cccs3)n2Cc2ccccc2)nc2sc3ccccc3n12 | 4.96 µM
95 | COCCNc1nc2c(c(=O)n(C)c(=O)n2C)n1Cc1cccc(C)c1 | 25.6 µM (inactive)
96 | CCOC(=O)C1CCN(CC(=O)Nc2c(C(=O)OC)[nH]c3ccc(Cl)cc23)CC1 | 31.2 µM (inactive)
97 | CCOC(=O)C(C)Oc1cccc2c(=O)n(CC(=O)NCc3ccc4c(c3)OCO4)ccc12 (centres undefined) | 3.9 µM
98 | C=C(C)COc1ccc(-c2[nH]ncc2-c2ccc(OC)c(OC)c2)c(O)c1 | 0.782 µM
99 | CCCCOc1ncnc2c1[nH]c1ccc(F)cc12 | > 40 µM (inactive)
100 | CCOc1ccc(-c2[nH]ncc2-c2ccc(OC)c(OC)c2)c(O)c1 | 1.21 µM
101 | Oc1c(CN2CCCCC2)cc(COCc2ccccc2)c2cccnc12 | 3.31 µM
102 | C=CCOC(=O)c1[nH]c2c(c1C)C(=O)CC(c1ccco1)C2 (centres undefined) | 0.196 µM
103 | Cc1cc(NC(=O)CSc2nc3ccccc3c(=O)n2C2CCCC2)no1 | 0.469 µM
104 | COc1ccc(OC)c(NS(=O)(=O)c2ccc(SC)cc2)c1 | 3.29 µM
105 | O=C(CCn1c(=O)oc2ccccc21)N1CCN(c2ccccc2Cl)CC1 | 5.77 µM (inactive)
106 | COc1cc(C(=O)N2CCN(c3cc(Cl)ccc3Cl)CC2)cc(OC)c1OC | 0.134 µM
107 | COc1ccc(CCNCc2csc3nc4ccccc4n23)cc1OC | 8.02 µM (inactive)
108 | O=C(CN1CCC(c2nc3ccccc3s2)CC1)NCc1cccs1 | 18 µM (inactive)
109 | CCc1ccc2oc(-c3cc(N)cc(C)c3O)nc2c1 | > 13 µM (inactive)
